Measurements from ChEMBL document CHEMBL4219117, “Chemical synthesis of an indomethacin ester prodrug and its metabolic activation by human carboxylesterase 1” (Bioorg Med Chem Lett, 2018).

T1: Liver carboxylesterase 1 (Homo sapiens, UniProt P23141)
T1 sequence (P23141 whole entry): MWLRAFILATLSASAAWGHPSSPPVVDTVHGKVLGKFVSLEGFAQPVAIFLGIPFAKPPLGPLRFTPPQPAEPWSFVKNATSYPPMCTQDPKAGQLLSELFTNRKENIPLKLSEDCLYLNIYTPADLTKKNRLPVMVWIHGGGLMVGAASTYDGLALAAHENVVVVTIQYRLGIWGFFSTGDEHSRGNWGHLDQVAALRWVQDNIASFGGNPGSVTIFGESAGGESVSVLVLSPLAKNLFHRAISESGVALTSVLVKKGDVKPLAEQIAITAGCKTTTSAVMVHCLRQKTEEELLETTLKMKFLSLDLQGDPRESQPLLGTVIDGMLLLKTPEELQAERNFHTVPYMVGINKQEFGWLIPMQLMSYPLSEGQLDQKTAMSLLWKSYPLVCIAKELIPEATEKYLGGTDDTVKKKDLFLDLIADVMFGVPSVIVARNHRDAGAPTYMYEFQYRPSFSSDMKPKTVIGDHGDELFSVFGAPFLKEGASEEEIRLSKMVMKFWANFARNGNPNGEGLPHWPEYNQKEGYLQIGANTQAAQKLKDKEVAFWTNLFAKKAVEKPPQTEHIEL

B1: Liver carboxylesterase 1 (Homo sapiens) (protein)
chain: T1 sequence (P23141 whole entry)

What was measured:
[1] = target: T1, Liver carboxylesterase 1; experiment: Prodrug activation in human liver microsomes assessed as carboxylesterase 1-mediated indomethacin formation at 0.25 mM after 30 to 1440 mins by HPLC analysis; conditions: 250 µM
[2] = target: T1, Liver carboxylesterase 1; experiment: Prodrug activation in human intestine microsomes assessed as carboxylesterase 1-mediated indomethacin formation at 0.25 mM after 30 to 1440 mins by HPLC analysis; conditions: 250 µM
[3] = target: T1, Liver carboxylesterase 1; experiment: Prodrug activation assessed as human carboxylesterase 1b-mediated indomethacin formation by measuring intrinsic clearance per mg protein at 0.003125 to 0.10 mM after 30 to 180 mins by HPLC based Michaelis-Menten plot analysis; conditions: isolated protein, 100 µM
[4] = substrate: CCCCOC(=O)Cc1c(C)n(C(=O)c2ccc(Cl)cc2)c2ccc(OC)cc12; experiment: (§1) Prodrug activation assessed as human carboxylesterase 1b-mediated indomethacin formation at 0.003125 to 0.10 mM after 30 to 180 mins by HPLC based Michaelis-Menten plot analysis
[5] = substrate: CCCCSC(=O)Cc1c(C)n(C(=O)c2ccc(Cl)cc2)c2ccc(OC)cc12; experiment: as §1
[6] = substrate: CC[C@@H](C)OC(=O)Cc1c(C)n(C(=O)c2ccc(Cl)cc2)c2ccc(OC)cc12; experiment: as §1
[7] = substrate: CC[C@@H](OC(=O)Cc1c(C)n(C(=O)c2ccc(Cl)cc2)c2ccc(OC)cc12)c1ccccc1; experiment: as §1
[8] = substrate: CC[C@H](C)OC(=O)Cc1c(C)n(C(=O)c2ccc(Cl)cc2)c2ccc(OC)cc12; experiment: as §1
[9] = substrate: CC[C@H](OC(=O)Cc1c(C)n(C(=O)c2ccc(Cl)cc2)c2ccc(OC)cc12)c1ccccc1; experiment: as §1
[10] = substrate: COc1ccc2c(c1)c(CC(=O)OCC(C)(C)C)c(C)n2C(=O)c1ccc(Cl)cc1; experiment: as §1
[11] = substrate: COc1ccc2c(c1)c(CC(=O)OCC(C)C)c(C)n2C(=O)c1ccc(Cl)cc1; experiment: as §1

Molecule	Drug metabolism [1]	Drug metabolism [2]	clearance [3] [µL/min/mg]	further results
CCCCOC(=O)Cc1c(C)n(C(=O)c2ccc(Cl)cc2)c2ccc(OC)cc12	Metabolite_Detected	Metabolite_Detected	340	–
COc1ccc2c(c1)c(CC(=O)OCC(C)(C)C)c(C)n2C(=O)c1ccc(Cl)cc1	Metabolite_Detected	Metabolite_Notdetected	69	–
CC[C@H](C)OC(=O)Cc1c(C)n(C(=O)c2ccc(Cl)cc2)c2ccc(OC)cc12	Metabolite_Notdetected	Metabolite_Notdetected	2.1	–
CC[C@H](OC(=O)Cc1c(C)n(C(=O)c2ccc(Cl)cc2)c2ccc(OC)cc12)c1ccccc1	Metabolite_Notdetected	Metabolite_Notdetected	0.3	–
CC[C@@H](OC(=O)Cc1c(C)n(C(=O)c2ccc(Cl)cc2)c2ccc(OC)cc12)c1ccccc1	Metabolite_Notdetected	Metabolite_Notdetected	7	–
COc1ccc2c(c1)c(CC(=O)OC(C)(C)C)c(C)n2C(=O)c1ccc(Cl)cc1	Metabolite_Notdetected	Metabolite_Notdetected	–	–
CC[C@@H](C)OC(=O)Cc1c(C)n(C(=O)c2ccc(Cl)cc2)c2ccc(OC)cc12	Metabolite_Notdetected	Metabolite_Notdetected	4.8	–
COc1ccc2c(c1)c(CC(=O)OCC(C)C)c(C)n2C(=O)c1ccc(Cl)cc1	Metabolite_Detected	Metabolite_Detected	89	–
CCCCSC(=O)Cc1c(C)n(C(=O)c2ccc(Cl)cc2)c2ccc(OC)cc12	Metabolite_Detected	Metabolite_Detected	380	–
B1	–	–	–	Km [4]: 4.4 µM; Vmax [4]: 0.00151 µmol/min; Km [5]: 2.1 µM; Vmax [5]: 0.0008 µmol/min; Km [6]: 10.1 µM; Vmax [6]: 4.9e-05 µmol/min; Km [7]: 2.9 µM; Vmax [7]: 2.1e-05 µmol/min; Km [8]: 48.5 µM; Vmax [8]: 0.000103 µmol/min; Km [9]: 6.5 µM; Vmax [9]: 2e-06 µmol/min; Km [10]: 4.6 µM; Vmax [10]: 0.000322 µmol/min; Km [11]: 13.7 µM; Vmax [11]: 0.00122 µmol/min
